Broadly, the EC50 is the concentration needed to bring the measured effect to its halfway point.

The subject of one test is HBV rcDNA. As to the kind of experiment: HepDE19 assay with bDNA quantitation of HBV rcDNA. It is filed as cell-based, hepatitis B virus (HBV). To be noted: HepDE19 cells, 7 day incubation, rcDNA measured by Quantigene 2.0 bDNA assay, top concentration 25 μM; read-out: DE-19bDNA EC50. The procedure, abridged:
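HepDE19 cells were switched to tetracycline-free medium and exposed to compound (0.5% DMSO final) for 7 days at 37° C. rcDNA was then quantified by bDNA with an HBV-specific probe set. In parallel, viability was read as ATP content (CellTiter-Glo) after 4 days on replicate plates.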
Regarding `CC(c1c[nH]c(=O)c2cc(F)c(F)cc12)N(C)C(=O)c1cc2c(F)cccn2c1` (single isomer, unassigned) [Compound 80, N-(1-(6,7-Difluoro-1-oxo-1,2-dihydroisoquinolin-4-yl)ethyl)-8-fluoro-N-methylindolizine-2-carboxamide], the EC50 came out at 20 nM.
Same read-out and setting: with `CC(c1c[nH]c(=O)c2c(F)c(F)ccc12)N(C)C(=O)c1cc2c(F)cccn2c1` (single isomer, unassigned) [Compound 81, N-(1-(7,8-Difluoro-1-oxo-1,2-dihydroisoquinolin-4-yl)ethyl)-8-fluoro-N-methylindolizine-2-carboxamide] the figure was 2100 nM; with `CC(c1c[nH]c(=O)c2c(F)c(F)ccc12)N(C)C(=O)c1cc2c(F)cccn2c1` (single isomer, unassigned) [Compound 82, N-(1-(7,8-Difluoro-1-oxo-1,2-dihydroisoquinolin-4-yl)ethyl)-8-fluoro-N-methylindolizine-2-carboxamide], 70 nM; with `CC(c1c[nH]c(=O)c2cc(F)c(F)cc12)N(C)C(=O)c1cc2c([nH]1)CCC(F)(F)C2` (single isomer, unassigned) [Compound 88, N-(1-(6,7-Difluoro-1-oxo-1,2-dihydroisoquinolin-4-yl)ethyl)-5,5-difluoro-N-methyl-4,5,6,7-tetrahydro-1H-indole-2-carboxamide], 30 nM.
On the same count and under the same terms, with `CC(c1c[nH]c(=O)c2cc(F)c(F)cc12)N(C)C(=O)c1cc2c([nH]1)CCC(F)(F)C2` (single isomer, unassigned) [Compound 89, N-(1-(6,7-Difluoro-1-oxo-1,2-dihydroisoquinolin-4-yl)ethyl)-5,5-difluoro-N-methyl-4,5,6,7-tetrahydro-1H-indole-2-carboxamide] the figure was 1800 nM; with `CC(c1c[nH]c(=O)c2c(F)c(F)ccc12)N(C)C(=O)c1cc2c([nH]1)CCC(F)(F)C2` (single isomer, unassigned) [Compound 90, N-(1-(7,8-Difluoro-1-oxo-1,2-dihydroisoquinolin-4-yl)ethyl)-5,5-difluoro-N-methyl-4,5,6,7-tetrahydro-1H-indole-2-carboxamide], 370 nM; with `CC(c1c[nH]c(=O)c2c(F)c(F)ccc12)N(C)C(=O)c1cc2c([nH]1)CCC(F)(F)C2` (single isomer, unassigned) [Compound 91, N-(1-(7,8-Difluoro-1-oxo-1,2-dihydroisoquinolin-4-yl)ethyl)-5,5-difluoro-N-methyl-4,5,6,7-tetrahydro-1H-indole-2-carboxamide], 7300 nM.
Same read-out and setting: with `CC(c1c[nH]c(=O)c2c(F)c(F)ccc12)N(C)C(=O)c1cc2c(Cl)cccn2c1` (single isomer, unassigned) [Compound 92, 8-Chloro-N-(1-(7,8-difluoro-1-oxo-1,2-dihydroisoquinolin-4-yl)ethyl)-N-methylindolizine-2-carboxamide] the figure was 2700 nM; with `CC(c1c[nH]c(=O)c2c(F)c(F)ccc12)N(C)C(=O)c1cc2c(Cl)cccn2c1` (single isomer, unassigned) [Compound 93, 8-Chloro-N-(1-(7,8-difluoro-1-oxo-1,2-dihydroisoquinolin-4-yl)ethyl)-N-methylindolizine-2-carboxamide], 40 nM.

The test is the same for the next values; noted with them: read-out: DE-19bDNA EC50; HepDE19 cells, 7 day incubation, rcDNA measured by Quantigene 2.0 bDNA assay, top concentration 25 μM.
Regarding `CC(c1c[nH]c(=O)c2cc(F)c(F)cc12)N(CCCO)C(=O)Cc1cc2ccccc2[nH]1` (single isomer, unassigned) [Compound 83, N-(1-(6,7-Difluoro-1-oxo-1,2-dihydroisoquinolin-4-yl)ethyl)-N-(3-hydroxypropyl)-2-(1H-indol-2-yl)acetamide], the half-maximal effective concentration (EC50) is ≥ 25000 nM.
With `CC(c1c[nH]c(=O)c2cc(F)c(F)cc12)N(CCCO)C(=O)Cc1cc2ccccc2[nH]1` (single isomer, unassigned) [Compound 84, N-(1-(6,7-Difluoro-1-oxo-1,2-dihydroisoquinolin-4-yl)ethyl)-N-(3-hydroxypropyl)-2-(1H-indol-2-yl)acetamide], the EC50 stood at 420 nM.

These data come from patent US20230295115A1, “SUBSTITUTED ISOQUINOLINYLMETHYL AMIDES, ANALOGUES THEREOF, AND METHODS USING SAME” (priority 2020, published 2023).
